Data as given in ChEMBL document CHEMBL1165891, “Synthesis and evaluation of novel chromone analogs for their inhibitory activity against interleukin-5” (Eur J Med Chem, 2010).
pIC50: −log10 of the molar value.

assay: Antiinflammatory activity against mouse Y16 cells assessed as inhibition of IL5 production; format: functional, cell-based

Compared with O=c1c(Cc2ccccc2)coc2cccc(OCC3CCCCC3)c12, O=c1c(Cc2ccc(O)cc2)coc2cccc(OCC3CCCCC3)c12 is higher in pIC50: 4.64 for the first, over 5.52 for the second. The second is the more potent here.

Compared with O=c1c(CO)coc2cccc(OCC3CCCCC3)c12, O=c1c(CCl)coc2cccc(OCC3CCCCC3)c12 is lower in pIC50: 5.12 for the first, under 4.52 for the second.

Compared with CC(C)COc1cccc2occ(CO)c(=O)c12, CC(C)COc1cccc2occ(CCl)c(=O)c12 is lower in pIC50: 4.67 for the first, under 4.52 for the second.

Going from CCc1ccc(Cc2coc3cccc(OCC4CCCCC4)c3c2=O)cc1 to Cc1ccc(Cc2coc3cccc(OCC4CCCCC4)c3c2=O)cc1, the pIC50 rises from under 4.52 to 4.83. The second is the more potent here.

Going from O=c1c(Cc2ccc(Cl)cc2)coc2cccc(OCC3CCCCC3)c12 to O=C(O)c1ccc(Cc2coc3cccc(OCC4CCCCC4)c3c2=O)cc1, the pIC50 rises from under 4.52 to 4.91. The second is the more potent here.

O=c1c(Cc2ccc(C(F)(F)F)cc2)coc2cccc(OCC3CCCCC3)c12 and NS(=O)(=O)c1ccc(Cc2coc3cccc(OCC4CCCCC4)c3c2=O)cc1 cannot be ordered by pIC50: under 4.52 for the first, under 4.52 for the second.

Cc1ccc(Cc2coc3cccc(OCCC(C)C)c3c2=O)cc1 and CC(C)CCOc1cccc2occ(Cc3ccc(O)cc3)c(=O)c12 cannot be ordered by pIC50: under 4.52 for the first, under 4.52 for the second.

O=C(O)c1coc2cccc(OCC3CCCCC3)c2c1=O and O=C(O)CCc1coc2cccc(OCC3CCCCC3)c2c1=O cannot be ordered by pIC50: under 4.52 for the first, under 4.52 for the second.

CC(C)COc1cccc2occ(CCC(=O)O)c(=O)c12 and CC(C)COc1cccc2occ(C(=O)O)c(=O)c12 cannot be ordered by pIC50: under 4.52 for the first, under 4.52 for the second.

O=c1c(/C=N/O)coc2cccc(OCC3CCCCC3)c12 and CC(C)COc1cccc2occ(/C=N/O)c(=O)c12 cannot be ordered by pIC50: under 4.52 for the first, under 4.52 for the second.

CC(C)COc1cccc2occ(Cc3ccc(C(=O)O)cc3)c(=O)c12 and COc1cc(Cc2coc3cccc(OCC4CCCCC4)c3c2=O)cc(OC)c1OC are within 0.2 log units of each other in pIC50: 4.94 for the first, 4.90 for the second.

For O=c1c(-c2ccc(O[C@@H]3O[C@H](CO)[C@@H](O)[C@H](O)[C@H]3O)cc2)coc2cc(O)cc(O)c12 [SOPHORICOSIDE], the pIC50 was 4.99.

assay: Antiinflammatory activity against mouse Y16 cells assessed as inhibition of IL5 production at 30 uM; format: functional

Compared with O=c1c(Cc2ccccc2)coc2cccc(OCC3CCCCC3)c12, O=c1c(Cc2ccc(O)cc2)coc2cccc(OCC3CCCCC3)c12 is higher in inhibition at 30 µM: 56% for the first, 98% for the second.

Compared with O=c1c(CO)coc2cccc(OCC3CCCCC3)c12, O=c1c(CCl)coc2cccc(OCC3CCCCC3)c12 is lower in inhibition at 30 µM: 84% for the first, 45% for the second.

Going from CC(C)COc1cccc2occ(CO)c(=O)c12 to CC(C)COc1cccc2occ(CCl)c(=O)c12, the inhibition at 30 µM falls from 56% to 43%.

Going from CCc1ccc(Cc2coc3cccc(OCC4CCCCC4)c3c2=O)cc1 to Cc1ccc(Cc2coc3cccc(OCC4CCCCC4)c3c2=O)cc1, the inhibition at 30 µM rises from 45% to 86%.

Going from O=c1c(Cc2ccc(Cl)cc2)coc2cccc(OCC3CCCCC3)c12 to O=C(O)c1ccc(Cc2coc3cccc(OCC4CCCCC4)c3c2=O)cc1, the inhibition at 30 µM rises from 36% to 77%.

Going from O=c1c(Cc2ccc(C(F)(F)F)cc2)coc2cccc(OCC3CCCCC3)c12 to NS(=O)(=O)c1ccc(Cc2coc3cccc(OCC4CCCCC4)c3c2=O)cc1, the inhibition at 30 µM falls from 47% to 31%.

First: Cc1ccc(Cc2coc3cccc(OCCC(C)C)c3c2=O)cc1
Second: CC(C)CCOc1cccc2occ(Cc3ccc(O)cc3)c(=O)c12
The inhibition at 30 µM of the first is lower: 35% for the first, 36% for the second.

Going from O=C(O)c1coc2cccc(OCC3CCCCC3)c2c1=O to O=C(O)CCc1coc2cccc(OCC3CCCCC3)c2c1=O, the inhibition at 30 µM falls from 43% to under 10%.

Going from CC(C)COc1cccc2occ(CCC(=O)O)c(=O)c12 to CC(C)COc1cccc2occ(C(=O)O)c(=O)c12, the inhibition at 30 µM rises from under 10% to 33%.

O=c1c(/C=N/O)coc2cccc(OCC3CCCCC3)c12 and CC(C)COc1cccc2occ(/C=N/O)c(=O)c12 cannot be ordered by inhibition at 30 µM: under 10% for the first, under 10% for the second.

Going from CC(C)COc1cccc2occ(Cc3ccc(C(=O)O)cc3)c(=O)c12 to COc1cc(Cc2coc3cccc(OCC4CCCCC4)c3c2=O)cc(OC)c1OC, the inhibition at 30 µM rises from 73% to 85%.

assay: Antiinflammatory activity against mouse Y16 cells assessed as inhibition of IL5 production at 50 uM; format: functional

For O=c1c(-c2ccc(O[C@@H]3O[C@H](CO)[C@@H](O)[C@H](O)[C@H]3O)cc2)coc2cc(O)cc(O)c12 [SOPHORICOSIDE], the inhibition at 50 µM was 93.8%.
